The values that follow come from patent US20150045610A1, “METHOD OF MODIFYING SPERMATOGENESIS, SPERMIOGENESIS AND/OR FERTILITY IN MAMMALS” (Monell Chemical Senses Center, priority 2012, published 2015).

For the test, the target named is T1, humanized mhT1R3 (Homo sapiens, UniProt Q7RTX0, A109T/A120V/A176D/A197V/A198V/A228S/A231N/A248T/A280V/A282S/A302S/A412V/A417V/A46T/A537T/C375D/D124S/D249S/D250G/D364H/D419E/D470T/D491G/D88A/DEL352-352/DEL488-489/E172D/E199T/E203N/E217D/E356N/E45S/E481Q/E505D/E525K/E545Q/F540P/F555L/G168S/G205S/G311T/G314N/G355L/G360D/G414H/G438R/G439D/G463S/G50T/G542N/H261R/H278R/H281Y/H332P/I485M/I536F/INS376MLQNLSSG/K32Q/K339E/K422L/K494V/K86G/L173R/L245Q/L272V/L29F/L354S/L385Q/L433M/L458M/L483S/L71F/L74M/M151L/M315I/M318V/M31A/N285S/N386L/N532H/N68L/P112S/P246H/P335S/P416H/P420H/P441T/P60I/Q221E/Q257L/Q317R/Q330L/Q336H/Q359L/Q372R/Q418S/Q504K/Q531K/R123Q/R247D/R252Q/R291G/R30K/R357A/R443Q/R467V/R473T/R479Q/R482Q/R486Y/R498Q/R52N/R550K/R553A/R556P/R560K/R56Q/S251Q/S267K/S289H/S290H/S392A/S446A/S447E/S464P/S477T/S490P/S53Q/S559P/S58N/S67P/T195Q/T346A/T377L/T390I/T434S/T480L/T63N/V152I/V277A/V366M/V36I/V381L/V393T/V437A/V465T/V61P/W72L).
T1 construct: the extracellular domain is of mouse origin and the transmembrane and intracellular domains of human origin; mouse T1R3 extracellular domain (fusion partner replacing the human extracellular domain); expressed in transfected cells; host or cells: transgenic Line 7c mice (T1R3-/-, Gus-/-, mhT1R3+/-)
T1 sequence (Q7RTX0 with tags, fused parts or gaps L29F/R30K/M31A/K32Q/V36I/E45S/A46T/G50T/R52N/S53Q/R56Q/S58N/P60I/V61P/T63N/S67P/N68L/L71F/W72L/L74M/K86G/D88A/A109T/P112S/A120V/R123Q/D124S/M151L/V152I/G168S/E172D/L173R/A176D/T195Q/A197V/A198V/E199T/E203N/G205S/E217D/Q221E/A228S/A231N/L245Q/P246H/R247D/A248T/D249S/D250G/S251Q/R252Q/Q257L/H261R/S267K/L272V/V277A/H278R/A280V/H281Y/A282S/N285S/S289H/S290H/R291G/A302S/G311T/G314N/M315I/Q317R/M318V/Q330L/H332P/P335S/Q336H/K339E/T346A/DEL352-352/L354S/G355L/E356N/R357A/Q359L/G360D/D364H/V366M/Q372R/C375D/INS376MLQNLSSG/T377L/V381L/L385Q/N386L/T390I/S392A/V393T/A412V/G414H/P416H/A417V/Q418S/D419E/P420H/K422L/L433M/T434S/V437A/G438R/G439D/P441T/R443Q/S446A/S447E/L458M/G463S/S464P/V465T/R467V/D470T/R473T/S477T/R479Q/T480L/E481Q/R482Q/L483S/I485M/R486Y/DEL488-489/S490P/D491G/K494V/R498Q/Q504K/E505D/E525K/Q531K/N532H/I536F/A537T/F540P/G542N/E545Q/R550K/R553A/F555L/R556P/S559P/R560K limits assumed): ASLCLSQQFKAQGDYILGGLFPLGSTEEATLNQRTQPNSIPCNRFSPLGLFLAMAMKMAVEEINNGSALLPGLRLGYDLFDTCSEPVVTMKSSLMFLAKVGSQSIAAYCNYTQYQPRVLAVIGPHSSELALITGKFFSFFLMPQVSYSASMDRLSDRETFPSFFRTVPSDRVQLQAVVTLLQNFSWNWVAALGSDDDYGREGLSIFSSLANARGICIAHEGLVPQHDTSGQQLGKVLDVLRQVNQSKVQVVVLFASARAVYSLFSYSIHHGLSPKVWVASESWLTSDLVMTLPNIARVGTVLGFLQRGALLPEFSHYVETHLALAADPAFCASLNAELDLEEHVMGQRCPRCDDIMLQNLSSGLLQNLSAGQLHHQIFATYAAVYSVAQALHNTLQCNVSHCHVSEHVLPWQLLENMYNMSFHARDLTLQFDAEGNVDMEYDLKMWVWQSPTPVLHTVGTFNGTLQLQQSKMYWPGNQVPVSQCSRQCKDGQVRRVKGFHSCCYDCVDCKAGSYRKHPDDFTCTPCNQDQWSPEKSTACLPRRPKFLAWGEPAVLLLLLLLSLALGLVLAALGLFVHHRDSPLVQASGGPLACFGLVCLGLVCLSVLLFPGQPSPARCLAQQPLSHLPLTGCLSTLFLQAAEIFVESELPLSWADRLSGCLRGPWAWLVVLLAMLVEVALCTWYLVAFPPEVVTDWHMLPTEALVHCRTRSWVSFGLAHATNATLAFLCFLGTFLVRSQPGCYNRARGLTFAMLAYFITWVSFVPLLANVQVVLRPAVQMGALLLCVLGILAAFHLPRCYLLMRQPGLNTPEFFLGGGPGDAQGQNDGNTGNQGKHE
Kind of test: T1R3 pharmacological block with clofibrate diet (male reproduction). The settings on record: line 7c males on clofibrate diet, mated with WT females. Type of test: in vivo, mouse. As for the experimental part:
Matched groups (six males each) of WT and line 7c mice (expressing the chimerical mhT1R3 transgene on a T1R3/α-gustducin double-null background), 3-6 months old, were fed the indicated diets for 4-6 weeks. Each genotype was tested in two groups, one on the regular diet and one on a test diet with clofibrate. An additional group of males stayed on the test diet for another 4-6 weeks, during which time they were mated with WT females to determine whether the pharmacological intervention was effective. Then the animals were allowed to recover on the regular diet for an additional 4 weeks after the end of the treatment (half-time for total sperm turnover in mice), and again were tested for their reproductive capacity, and then their tissues were analyzed. […]
We observed spermatozoa after clofibrate treatment represent cells that were able to escape the inhibition of clofibric acid, most likely due to very fast clearance and fluctuating levels in rodents. […] Therefore, we measured sperm concentration as an indicator of efficiency of the pharmacological block and to be able to determine the concentration that results in effective sterility. We analyzed testicular morphology, sperm production, sperm motility and sperm function in in vitro fertilization after feeding these animals with the lipid lowering drug clofibrate. […]

As to `CC(C)(Oc1ccc(Cl)cc1)C(=O)O` [clofibric acid], the male fertility result was “significantly affected male fertility”.
